Data as given in PMC7869897, “Structure–functional relationship of cellular retinoic acid-binding proteins I and II interacting with natural and synthetic ligands” (Acta Crystallographica. Section D, Structural Biology, 2021).
Values belong to the compound of their own block, whether it stands above or below them.

How the values were obtained:
Assay type in all cases: binding
[1] = target: T1, CRABPI (Homo sapiens, UniProt P29762, L29C); assay: fluorescent probe displaced by DC645
T1 construct: gene CRABP1; His-tagged, tag cleaved with thrombin

[2] = target: T2, CRABPII (Homo sapiens, UniProt P29373); assay: solvatochromic fluorescence probe, with and without CRABPII; displaced by DC645
T2 construct: gene CRABP2; GST-tagged, tag cleaved with thrombin
T2 sequence (P29373 1-138): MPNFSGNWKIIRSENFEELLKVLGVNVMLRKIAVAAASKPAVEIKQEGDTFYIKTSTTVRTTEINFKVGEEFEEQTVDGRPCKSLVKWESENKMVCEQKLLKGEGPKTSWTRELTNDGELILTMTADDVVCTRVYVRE

[3] = target: T1, CRABPI; assay: crystal structure ([…] Å); co-purified fatty acid density modelled as myristic acid
[4] = target: T2, CRABPII; assay: co-crystal structure ([…] Å)
[5] = target: T2, CRABPII; assay: co-crystal structure ([…] Å) and competitive fluorescence displacement of DC271
[6] = target: T1, CRABPI; assay: as above

T1 sequence (P29762 whole entry L29C): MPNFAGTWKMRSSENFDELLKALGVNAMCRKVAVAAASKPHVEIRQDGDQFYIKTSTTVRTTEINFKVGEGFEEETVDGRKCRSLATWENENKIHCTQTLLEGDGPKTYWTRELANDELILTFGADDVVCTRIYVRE

SMILES: CC(C)N1CCC(C)(C)c2cc(C#Cc3ccc(C(=O)O)cc3)ccc21 [DC271]
fluorescent probe displaced by DC645 [1]: Competitive displacement of DC271 from CRABPI-L29C by DC645 was carried out
solvatochromic fluorescence probe, with and without CRABPII; displaced by DC645 [2]: DC271 presents a stark solvatochromic effect when in the presence of CRABPII owing to inclusion into the binding site

SMILES: CCCCCCCCCCCCCC(=O)O [MYR, myristic acid]
crystal structure (1.64 Å); co-purified fatty acid density modelled as myristic [3]: a conserved water molecule hydrogen-bonded to the associated ligand modelled as the 14-carbon myristic acid

SMILES: CC(C)N1CCC(C)(C)c2ccc(-c3ccc(/C=C/C(=O)O)cc3)cc21 [DC479]
co-crystal structure (1.80 Å) [4]: DC479 occupies the binding site fully, with its carboxylic acid head buried adjacent to the canonical binding triad

Kd [5]: 250 ± 60 nM
Kd [6]: 1940 ± 110 nM
SMILES: CC1(C)CCC(C)(C)c2nc(C#Cc3ccc(C(=O)O)cc3)cnc21 [DC645]
